Activity calls are given as the source filed them. No rule for the calls is given here.
System: CCRIS mutagenicity, Ames/micronucleus/aberration tests
Assay: CCRIS mutagenicity studies
[1] = Test System: AMES SALMONELLA TYPHIMURIUM, Strain/Indicator: TA98, Metabolic Activation: NONE, Method: PREINCUBATION
[2] = Test System: AMES SALMONELLA TYPHIMURIUM, Strain/Indicator: TA100, Metabolic Activation: NONE, Method: STANDARD PLATE

| Structure (SMILES) | mutagenic call (End Point: Chinese hamster lung fibroblasts, Strain/Indicator: V79MZ/HPRT/6-Thioguanidine, Metabolic Activation: Stably transfected human CYP1A1 (hCYP1A1), Method: Preincubation) | mutagenic call (End Point: Chinese hamster lung fibroblasts, Strain/Indicator: V79MZ/HPRT/6-Thioguanidine, Metabolic Activation: Stably transfected human CYP1B1 (hCYP1B1), Method: Preincubation) | mutagenic call [1] | mutagenic call (Test System: AMES SALMONELLA TYPHIMURIUM, Strain/Indicator: TA98, Metabolic Activation: RAT, LIVER, S-9, AROCLOR 1254, Method: STANDARD PLATE) | mutagenic call (Test System: AMES SALMONELLA TYPHIMURIUM, Strain/Indicator: TA98, Metabolic Activation: RAT, LIVER, S-9, Method: PREINCUBATION) | mutagenic call (Test System: AMES SALMONELLA TYPHIMURIUM, Strain/Indicator: TA100, Metabolic Activation: NONE, Method: PREINCUBATION) | mutagenic call [2] | mutagenic call (Test System: AMES SALMONELLA TYPHIMURIUM, Strain/Indicator: TA100, Metabolic Activation: RAT, LIVER, MICROSOMES, 5-METHYLCHRYSENE, Method: STANDARD PLATE) | mutagenic call (Test System: AMES SALMONELLA TYPHIMURIUM, Strain/Indicator: TA100, Metabolic Activation: RAT, LIVER, MICROSOMES, AROCLOR 1254, Method: STANDARD PLATE) | mutagenic call (Test System: AMES SALMONELLA TYPHIMURIUM, Strain/Indicator: TA100, Metabolic Activation: RAT, LIVER, MICROSOMES, Method: STANDARD PLATE) | mutagenic call (Test System: AMES SALMONELLA TYPHIMURIUM, Strain/Indicator: TA100, Metabolic Activation: RAT, LIVER, S-9, AROCLOR 1254, Method: STANDARD PLATE) | mutagenic call (Test System: AMES SALMONELLA TYPHIMURIUM, Strain/Indicator: TA100, Metabolic Activation: RAT, LIVER, S-9, Method: PREINCUBATION) | mutagenic call (Test System: AMES SALMONELLA TYPHIMURIUM, Strain/Indicator: TA100, Metabolic Activation: NONE, Method: FLASK VAPORIZATION) | mutagenic call (Test System: AMES SALMONELLA TYPHIMURIUM, Strain/Indicator: TA100, Metabolic Activation: RAT, LIVER, S-9, AROCLOR 1254, Method: FLASK VAPORIZATION) | mutagenic call (Test System: AMES SALMONELLA TYPHIMURIUM, Strain/Indicator: TA1535, Metabolic Activation: NONE, Method: FLASK VAPORIZATION) | mutagenic call (Test System: AMES SALMONELLA TYPHIMURIUM, Strain/Indicator: TA1535, Metabolic Activation: NONE, Method: STANDARD PLATE) | mutagenic call (Test System: AMES SALMONELLA TYPHIMURIUM, Strain/Indicator: TA1535, Metabolic Activation: RAT, LIVER, S-9, AROCLOR 1254, Method: FLASK VAPORIZATION) | mutagenic call (Test System: AMES SALMONELLA TYPHIMURIUM, Strain/Indicator: TA98, Metabolic Activation: RAT, LIVER, S-9, KANECHLOR 500, Method: PREINCUBATION) | mutagenic call (Test System: AMES SALMONELLA TYPHIMURIUM, Strain/Indicator: TA100, Metabolic Activation: RAT, LIVER, S-9, KANECHLOR 500, Method: PREINCUBATION) |
| --- | --- | --- | --- | --- | --- | --- | --- | --- | --- | --- | --- | --- | --- | --- | --- | --- | --- | --- | --- |
| Cc1cc2ccccc2c2ccc3ccccc3c12 | active; positive. highly potent. protection against mutagenicity by human glutathione s- | active; positive. highly potent. protection against mutagenicity by human glutathione s- | inactive; negative | active; positive | active; positive | inactive; negative | inactive; negative | inactive; negative | active; positive | inactive; negative | active; positive | active; positive | – | – | – | – | – | – | – |
| C[C@@H]1O[C@H]1C | – | – | – | – | – | – | active; positive | – | – | – | – | – | active; positive | active; positive | active; positive | active; positive | active; positive | – | – |
| O=C(O)c1cc([N+](=O)[O-])ccc1[N+](=O)[O-] | – | – | active; positive | – | – | – | – | – | – | – | – | – | – | – | – | – | – | active; positive | inactive; negative |
